# Laboratory results: US8926998B2, “Polycarbonates bearing pendant primary amines for medical applications” (International Business Machines Corporation, priority 2012, dated 2015)
# System: S. aureus
# Experiment: Minimal inhibitory concentration (MIC), broth microdilution
# Assay type: cell-based, Staphylococcus aureus
# Conditions: free drug
# Procedure: Bacteria (S. aureus, S. epidermis and E. coli) and Yeast (C. albicans) obtained from ATCC were reconstituted from its lyophilized form according to the manufacturer's protocol. Bacterial samples were cultured in tryptic soy broth (T-SB) or Mueller Hinton broth (M-HB) solution at 37° C., and yeast cells were cultured in YMB at room temperature under constant shaking of 100 rpm. The MICs of the polymers were measured using the broth microdilution method. Briefly, 100 microliters of the respect broth medium containing a polymer at various concentrations (15.6, 31.3, 62.5, 125, 250, 500, 1000, 2000 mg/L) was placed into each well of a 96-well tissue culture plate. An equal volume of microbial suspension (3×10^5 CFU/mL) was added into each well. Prior to mixing, the microbial sample was first inoculated overnight to enter its log growth phase. The concentration of microbial solution was adjusted to give an initial optical density (O.D.) reading of approximately 0.07 at 600 nm wavelength on a microplate reader (TECAN, Switzerland), which corresponds to the concentration of Mc Farland 1 solution (3×10^8 CFU/mL), the microbial solution was further diluted by 1000 times to achieve an initial loading of 3×10^5 CFU/mL. The bacterial samples were kept in an incubator at 37° C. for 18 hours, while the Yeast samples were kept at room temperature for 42 hours under constant shaking of 100 rpm. […]
smiles,measurement,value
"CC1(C)S[C@@H]2[C@H](NC(=O)Cc3ccccc3)C(=O)N2[C@H]1C(=O)O [PenG, Penicillin G]",MIC S. aureus,about 0.01 mg/L
